How the values were obtained:
[1] = tested on: THF-II-lotiTL C22G mutant (THF-II-lotiTL-C22G) (RNA, riboswitch) GGCGUGGUCCGUUCAAGUCGUUCCUCGAAAGAGGAACUACGGGAGACGCC; experiment: ITC; settings: K+ 100 mM, Mg2+ (concentration not stated for this titration); 20 mM Tris-HCl pH 7.5, 1 mM TCEP, 25 °C; 0.75 mM ligand in syringe into 30 μM RNA
[2] = tested on: THF-II-lotiTL C22U mutant (RNA, riboswitch) GGCGUGGUCCGUUCAAUUCGUUCCUCGAAAGAGGAACUACGGGAGACGCC; experiment: ITC; settings: K+ 100 mM, Mg2+ (concentration not stated for this titration); 20 mM Tris-HCl pH 7.5, 1 mM TCEP, 25 °C; 0.75 mM ligand in syringe into 30 μM RNA
[3] = tested on: THF-II-lotiTL U44C mutant (RNA, riboswitch) GGCGUGGUCCGUUCAACUCGUUCCUCGAAAGAGGAACCACGGGAGACGCC; experiment: ITC; settings: K+ 100 mM, Mg2+ (concentration not stated for this titration); 20 mM Tris-HCl pH 7.5, 1 mM TCEP, 25 °C; 0.75 mM ligand in syringe into 30 μM RNA
[4] = tested on: THF-II-lotiTL U44A mutant (RNA, riboswitch) GGCGUGGUCCGUUCAACUCGUUCCUCGAAAGAGGAACAACGGGAGACGCC; experiment: ITC; settings: K+ 100 mM, Mg2+ (concentration not stated for this titration); 20 mM Tris-HCl pH 7.5, 1 mM TCEP, 25 °C; 0.75 mM ligand in syringe into 30 μM RNA
[5] = tested on: THF-II-lotiTL (RNA, riboswitch) GGCGUGGUCCGUUCAACUCGUUCCUCGAAAGAGGAACUACGGGAGACGCC; experiment: X-ray crystallography; settings: co-crystal, 0.1 M sodium citrate pH 6.5, 1.5-2.5 M ammonium sulfate, 16 °C; RNA:ligand 1:5

| binding [1] | binding [2] | binding [3] | binding [4] | binding [5] | SMILES |
| --- | --- | --- | --- | --- | --- |
| no | no | no | no |  | Nc1nc2c(c(=O)[nH]1)N[C@@H](CNc1ccc(C(=O)N[C@@H](CCC(=O)O)C(=O)O)cc1)CN2 |
|  |  |  |  | yes | C[C@H](O)[C@H](O)[C@H]1CNc2nc(N)[nH]c(=O)c2N1 |
|  |  |  |  | yes | Nc1nc2c(c(=O)[nH]1)N=C([C@H](O)[C@H](O)CO)CN2 |
|  |  |  |  | yes | Nc1nc2[nH]ccc2c(=O)[nH]1 |

— PMC9881143 (2023)
